Experimental data as given in patent publication US5667764A, “Compounds, compositions and methods for binding bio-affecting substances to surface membranes of bio-particles” (Zynaxis, Inc., priority 1992, dated 1997).
Read-outs that look alike come from different tables or passages of the source. One block for each compound: values may come before it.

Tests used:
[1] = Colchicine plasma concentration in rabbits (estimated); type: in vivo; conditions: rabbit 0.2 mg/kg/day vs human 1 mg/day
Method: (§1) Bochner et al., Handbook of Clinical Pharmacology, Little, Brown and Co., Boston (1983), pp. 151-152. […] Thus, the concentration of colchicine in rabbits shown to prevent restenosis was 14 times the concentration achieved in the clinical trial. The compounds of invention can be prepared in the above-described compatible binding media up to 100 μM, i.e., 1400 times the concentration shown to be effective in the animal study, and delivered directly to the arterial wall by catheter during an angioplasty procedure.

[2] = Colchicine blood/plasma level in humans; type: in vivo; conditions: 1 mg/day human; read-out: Peak plasma concentration
Method: as §1

A10 cells = experiment: Antiproliferative activity on A10 cells after one 10 minute application; type: cell-based, rat; conditions: for Cell count: 10 minute application; for activity at 10 µM: Rattus norvegicus, read-out: % of Vehicle Maximum
Method: To determine the antiproliferative action of the compounds of invention, in vitro studies were performed using A10 cells, a clonal cell line originally derived from the thoracic aorta of embryonic rats, that proliferate as myoblasts and develop into cells which phenotypically resemble smooth muscle cells (B. Kimes and B. Brandt, Exptl. Cell Res. 98:349 (1976). Typically, twelve-well plates were seeded with 2500-10,000 A10 cells/cm^2 in Dulbecco's Modified Eagles Medium (DMEM) with 10% fetal calf serum (FCS) and allowed to adhere and stabilize for 24 hours at 37° C. Test substances were then prepared in the required concentrations in appropriate cell binding media and, after aspirating the plating medium, applied to the individual wells at 37° C. for a period of only 10 minutes. The treatments were then aspirated, the wells washed 4 times with non-treatment containing medium and then placed in non-treatment containing DMEM with 10% FCS for the duration of the study. At various times after treatment application, triplicate wells were aspirated, the aspirate saved, and the wells treated with 0.25 ml of 0.25% trypsin to release the adherent cells. The enzymatic action of trypsin on the cells was stopped by addition of excess protein (1.75 ml DMEM+10% FCS), the aspirate returned to the wells, and an aliquot of the resultant cell suspension counted in a Coulter Counter (Model ZM with Sampling Stand II). Cell count was normalized to cells per square centimeter of growing area (surface area of well bottom).

[3] = 1 mg/day human; cited from earlier work
restenosis = conditions: patients; limiting toxicity; cited from earlier work
[4] = test system: red blood cell ghosts (plasma membrane); experiment: Membrane retention coefficient (MRC) in red blood cell ghosts; type: binding; conditions: 24 hr; Table II
Method: Determination of Membrane Retention Coefficient
The membrane retention coefficient (MRC) provides information regarding how well a given compound is retained in the plasma membrane of a cell and is determined as described below.
Generation of red blood cell ghosts for use as a model membrane is achieved by centrifuging whole blood at 300×g for 15 minutes, removal of the plasma and resuspension of the cell pellet in 0.83% (w/v) ammonium chloride. The ghosts are pelleted from the ammonium chloride by centrifuging at 10,000×g for 10 minutes. This ammonium chloride washing procedure is repeated a minimum of five times to insure that complete release of hemoglobin from the cells has occured. The ghosts are labeled with the compound in question at a concentration allowing for detection of the labeled ghosts by instrumental analysis or fluorescent microscopic methods, and at a concentration similar to those that would be used to label cells for a specific application as described above. For the determinations hereinbelow stock solutions of the compounds in question were prepared in ethanol at a molar concentration of 2×10^-3, and working dilutions of the compounds were prepared in iso-osmotic sucrose (52 g/500 ml distilled water). After incubation of the ghosts at an approximate concentration of 1×10^9 ghosts/ml in the working dilutions of the compounds for 10 minutes, the samples were centrifuged at 10,000×g to pellet the ghosts and the staining solution was aspirated from the samples. The labeled ghosts were resuspended in 1 ml of phosphate buffered saline solution containing 10% fetal bovine serum (PBS-FBS). Triplicate 20 ul aliquots were removed from each sample for the determination of the amount of total compound present. The samples were centrifuged as described above and triplicate 20 ul aliquots were removed from the supernatant for quantitative determination of amount of unbound compound present.
After sampling, the supernatant was aspirated and the red cell ghost pellet was resuspended in 1.0 ml of the PBS-FBS, which was once again sampled as described above. This procedure was repeated at least six times, allowing for detection of rapidly released compounds and was monitored after times equal to or greater than 24 hours to allow for the detection of more slowly released compounds. For the determination of the amount of compound present in each sample, the 20 ul aliquots were extracted into 3.0 ml of n-butanol by shaking. The samples were centrifuged at 3000×g to remove membrane debris and the butanol fractions were assayed for compound concentration. Fluorescent compounds are assayed in this manner using peak excitation and emission wave lengths for the particular compounds being assayed to determine the fluorescence units for each sample.
The determination of the amount of compound present in each sample as described above allows for the calculation of the MRC for each washing or fixed time point. The value is obtained by the following formula: […]
wherein CT represents the amount of compound present (in units determined by the method used to assay the compound) in the total sample and CS represents the amount of compound present in the supernatant sample for that particular time point. The comparison of the MRC values defines criteria for identification of the compounds of this invention, these criteria being: 1) the MRC values determined for each washing steps should have a value of at least about 90 and 2) the percent difference between MRC values over at least a 24 hour time period should be less than about 10%. [drawing 14]
The data provided in Table I below are the results from one experiment and serve as an example of the MRC determination. […]

rabbit erythrocytes = conditions: iv
From the text: (§2) *Half life for loss of dye from rabbit erythrocytes after labeling and

membrane ghosts = experiment: Membrane binding stability (MBS) assay in membrane ghosts with 5% albumin; conditions: 24 hours; for MBS (% of max.): Table II; for MBS: Table III
From the text: Determination of Membrane Binding Stability
For example, very stable binding to membranes might be required for applications such as delivery of therapeutic radionuclides to tumor sites, as loss of compound could lead to the radionuclide producing its toxic effect at non-tumor sites. On the other hand, more rapid loss of compound from biomembranes may be desirable for application involving controlled delivery rates of therapeutic agents. Accordingly, there is described hereinbelow an assay for determining MBS under conditions approximating those found in vivo.
In carrying out this assay, approximately physiological concentrations of serum albumin (5%) are used. […] To better approximate the effects of large fluid volumes to which labelled cells are exposed in vivo, the assay for MBS is carried out by suspending a decreasing number of labeled membrane ghosts in a fixed volume of albumin-containing saline. At 24 hours, the total amount of label present is determined by sampling the well mixed suspension; subsequently, the membrane ghosts are pelleted by centrifugation and the amount of label released into the supernatant is determined and expressed as a percent of total label. Percent retention is plotted against number of ghosts per ml. of suspension, and MBS is determined as the area under the curve between 5×10^7 ghosts/ml. and 4×10^8 ghosts/ml.

[5] = In vivo loss of dye from labeled, reinjected erythrocytes; conditions: rabbit, iv
From the text: as §2

Structure (SMILES): COc1cc2c(c(OC)c1OC)-c1ccc(OC)c(=O)cc1[C@@H](NC(C)=O)CC2 [Colchicine, colchicine]
Colchicine concentration in rabbits vs clinical trial [1]: 14 times
Cmax [2]: 5 nM
Cell count (A10 cells; 10 μM, day 0): 3006.53 cells per square centimeter
Cell count (A10 cells; 10 μM, day 1): 3778.07 cells per square centimeter
Cell count (A10 cells; 10 μM, day 2): 4249.35 cells per square centimeter
Cell count (A10 cells; 10 μM, day 3): 7785.90 cells per square centimeter
Cell count (A10 cells; 10 μM, day 6): 57626.63 cells per square centimeter
Cell count (A10 cells; 10 μM, day 7): 118127.94 cells per square centimeter
% of Vehicle Maximum (A10 cells; 10 μM, day 0, 0 min): 1.44%
activity at 10 µM (A10 cells; A10, 24 h, 10 μM, day 1): 1.81%
activity at 10 µM (A10 cells; A10, 48 h, 10 μM, day 2): 2.04%
activity at 10 µM (A10 cells; A10, 72 h, 10 μM, day 3): 3.73%
activity at 10 µM (A10 cells; A10, 144 h, 10 μM, day 6): 27.6%
activity at 10 µM (A10 cells; A10, 168 h, 10 μM, day 7): 56.6%
Cell density relative to vehicle-treated cells (A10 cells; day 7): only one-half the cell density of vehicle-treated cells
Increase in cell number over that with the colchicine conjugate (A10 cells; day 7): approximately 10 fold
Peak plasma concentration [3]: 2 ng/mL
Maximum tolerated dose (restenosis): ≤ 1 mg/day

In vivo membrane half-life (rabbit erythrocytes): < 1 days
MBS (% of max.) (membrane ghosts): 19 ± 3.5 % of max.
Structure (SMILES): CCCCCCCCCCCC[N+]1=C(C=CC=C2N(CCCCCCCCCC)c3ccccc3C2(C)C)C(C)(C)c2ccccc21 [Compound 0]
MRC# (at 24 hr.) [4]: 30 ± 4.7

In vivo membrane half-life (rabbit erythrocytes): 1.4 days
MBS (% of max.) (membrane ghosts): 48 ± 3.1 % of max.
Structure (SMILES): CCCCCCCCCCCCCCCCCCCCCC[N+]1=C(C=CC=C2N(CCCCCCCCCCCC)c3ccccc3C2(C)C)C(C)(C)c2ccccc21 [P]
MRC# (at 24 hr.) [4]: 65 ± 2.0

In vivo membrane half-life (rabbit erythrocytes): 10 ± 0.7 days
MBS (% of max.) (membrane ghosts): 41 ± 5.0 % of max.
MBS (membrane ghosts): 42 ± 5.7%
Structure (SMILES): CCCCCCCCCCCCCC[N+]1=C(C=CC=C2N(CCC)c3ccccc3C2(C)C)C(C)(C)c2ccccc21 [Q]
MRC# (at 24 hr.) [4]: 85 ± 0.6

MBS (% of max.) (membrane ghosts): 55 ± 1.7 % of max.
MBS (membrane ghosts): 55 ± 1.6%
half-life [5]: 36 days
Structure (SMILES): CCCCCCCCCCCCCCN1C(=CC=CC2=[N+](CCCCCCCCCCCCCC)c3ccccc3C2(C)C)C(C)(C)c2ccccc21 [R]
MRC# (at 24 hr.) [4]: 87 ± 0.6

MBS (% of max.) (membrane ghosts): 79 ± 3.7 % of max.
half-life [5]: 58 days
Structure (SMILES): CCCCCCCCCCCCCCCCN1C(=CC=CC2=[N+](CCCCCCCCCCCCCCCC)c3ccccc3C2(C)C)C(C)(C)c2ccccc21 [S]
MRC# (at 24 hr.) [4]: 87 ± 1.2
